This note sets out measurements from patent US20130280204A1 (priority 2007, published 2013).

The subject of this assay is Wuhan E119V. It is filed as cell-based, influenza A virus H3N2. The note with it: read-out: IC50 (nM zanamivir) A/Wuhan/359/95 (second line).

As to “3-Acetamido-2-(1-(((4-(aminomethyl)phenyl)carbamoyl)oxy)-2,3-dihydroxypropyl)-4-guanidino-3,4-dihydro-2H-pyran-6-carboxylic acid [compound 4]”, the IC50 turned out to be 51 ± 5 nM.
